Data: patent US20250082651A1, “GANAXOLONE FOR USE IN TREATING GENETIC EPILEPTIC DISORDERS” (Marinus Pharmaceuticals, Inc., priority 2017, published 2025)

Assays:
dogs = experiment: 1-year (chronic oral) dog toxicity study; format: in vivo
Source text: There was a physiologically normal shortening of the PR and QT interval in response to the higher heart rate. There was no effect on QRS duration or QTc interval.
In the oral dosing programme, a therapeutic index from non-human NOAEL levels to the adult partial-onset seizure epilepsy and the pharmacokinetics study is approximately 2 to 3-fold in dogs (sedation).

[1] = Multiple dose PK, 0.3 micron capsules 600, 800, 1000 mg BID escalating, healthy volunteers; format: in vivo, human; settings: for Cmax: steady state
Protocol: Multiple-dose studies of oral ganaxolone formulations were conducted in healthy volunteers. The 0.3 micron ganaxolone capsules were administered BID with a standard meal or snack for 7 days and at increasing doses.
Steady-state was reached within 3 days of administration of 600, 800 and 1000 mg BID ganaxolone to healthy subjects. The medium and high dose regimens were started after 3 days on the low dose and medium dose regimens, respectively. In general, ganaxolone was rapidly absorbed following PO administration and the mean Cmax was attained within 2 hours after multiple dosing; median Tmax was independent of dose level. […] Proportionality was conserved from 600 mg to 800 mg.
Values at Day 6.5, 9.5 and 12.5 are from evening samples collected 12 hrs after the last dose on PK sampling days. Subjects received 600 mg ganaxolone BID on Days 4-6; 800 mg ganaxolone BID on Days 7-9; and 1000 mg ganaxolone BID on Days 10-12.

CYP3A4 = CYP3A4 (Homo sapiens, UniProt P08684); experiment: In vitro clearance
[2] = target: human ether-a-go-go related gene (hERG) receptor (Homo sapiens, UniProt Q12809); experiment: hERG safety pharmacology; format: binding; settings: measured concentration of 70 nM (n=2)
Protocol: Safety pharmacology studies were conducted with ganaxalone.

female rats = experiment: Pulmonary safety pharmacology in female rats; format: in vivo, rat; settings: doses up to 40 mg/kg
rabbits = experiment: Local tolerance study in rabbits; format: in vivo, rabbit
Protocol: When given IV to rats and dogs, the main dose limiting toxicity finding was sedation. The no observed adverse effect level (NOAEL) after IV dosing in rats for 14 days was established at 42 mg/kg/day for males and 30 mg/kg/day for females. The NOAEL in dog after administration of ganaxolone by IV bolus followed by continuous IV infusion for 28 days was 7.20 mg/kg/day, which corresponded to a steady-state concentration of approximately 330 ng/mL and 333 ng/mL. There were no findings in a local tolerance study in rabbits.

CYP3A4, sequence (P08684 whole entry): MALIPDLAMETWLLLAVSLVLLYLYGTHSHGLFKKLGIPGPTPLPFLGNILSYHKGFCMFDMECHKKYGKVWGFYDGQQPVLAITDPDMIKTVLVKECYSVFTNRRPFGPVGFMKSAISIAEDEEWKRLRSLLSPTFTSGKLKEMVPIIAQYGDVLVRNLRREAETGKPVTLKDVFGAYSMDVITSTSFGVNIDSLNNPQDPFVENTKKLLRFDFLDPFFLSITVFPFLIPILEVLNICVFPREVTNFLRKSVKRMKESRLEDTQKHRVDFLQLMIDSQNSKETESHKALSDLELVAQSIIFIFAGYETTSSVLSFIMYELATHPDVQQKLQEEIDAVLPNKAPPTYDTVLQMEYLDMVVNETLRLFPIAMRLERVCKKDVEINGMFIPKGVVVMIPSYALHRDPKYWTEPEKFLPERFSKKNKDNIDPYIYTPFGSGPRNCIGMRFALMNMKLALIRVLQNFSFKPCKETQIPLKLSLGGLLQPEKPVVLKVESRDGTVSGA
human ether-a-go-go related gene (hERG) receptor, sequence (Q12809 whole entry): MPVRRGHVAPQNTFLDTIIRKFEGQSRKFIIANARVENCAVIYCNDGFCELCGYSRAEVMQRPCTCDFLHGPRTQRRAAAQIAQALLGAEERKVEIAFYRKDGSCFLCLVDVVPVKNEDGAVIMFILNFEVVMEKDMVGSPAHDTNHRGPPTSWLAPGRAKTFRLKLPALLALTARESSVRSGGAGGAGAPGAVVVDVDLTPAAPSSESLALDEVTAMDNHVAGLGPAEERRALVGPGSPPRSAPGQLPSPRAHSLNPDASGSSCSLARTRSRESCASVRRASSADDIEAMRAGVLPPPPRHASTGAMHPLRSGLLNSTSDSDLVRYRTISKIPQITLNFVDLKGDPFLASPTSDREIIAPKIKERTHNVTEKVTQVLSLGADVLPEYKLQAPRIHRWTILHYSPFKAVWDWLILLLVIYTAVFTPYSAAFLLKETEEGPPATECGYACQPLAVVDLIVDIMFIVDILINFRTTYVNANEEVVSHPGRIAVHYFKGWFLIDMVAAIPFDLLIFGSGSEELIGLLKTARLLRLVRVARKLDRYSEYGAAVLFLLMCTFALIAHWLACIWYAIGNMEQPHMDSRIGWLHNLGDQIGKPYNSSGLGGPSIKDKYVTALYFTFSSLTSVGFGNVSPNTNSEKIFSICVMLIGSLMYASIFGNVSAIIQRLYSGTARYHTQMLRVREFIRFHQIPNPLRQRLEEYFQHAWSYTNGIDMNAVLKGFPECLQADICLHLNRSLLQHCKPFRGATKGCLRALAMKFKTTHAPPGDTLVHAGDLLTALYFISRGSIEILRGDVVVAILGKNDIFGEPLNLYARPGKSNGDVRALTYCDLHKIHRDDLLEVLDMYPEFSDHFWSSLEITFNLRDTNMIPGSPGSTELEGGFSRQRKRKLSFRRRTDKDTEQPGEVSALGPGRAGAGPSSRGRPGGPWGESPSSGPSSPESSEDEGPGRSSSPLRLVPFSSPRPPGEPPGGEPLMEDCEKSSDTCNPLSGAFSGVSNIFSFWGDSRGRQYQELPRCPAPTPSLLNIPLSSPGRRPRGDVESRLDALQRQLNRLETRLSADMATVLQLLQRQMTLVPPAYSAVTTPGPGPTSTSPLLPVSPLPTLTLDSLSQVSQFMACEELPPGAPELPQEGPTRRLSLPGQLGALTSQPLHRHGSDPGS

CC(=O)[C@H]1CC[C@H]2[C@@H]3CC[C@H]4C[C@](C)(O)CC[C@]4(C)[C@H]3CC[C@]12C [Ganaxolone, 3α-hydroxy-3β-methyl-5α-pregnan-20-one]
Effect on QRS duration or QTc (dogs; 1-year dog study): no treatment effect | ECG finding (dogs; 1-year dog study, after 3 months of dosing, 4 animals, >190 bpm): transient sinus tachycardia | Cmax (dogs; 1-year dog toxicity study): > 1500 ng/mL | Findings at mean Cmax greater than 1500 ng/mL (dogs; chronic oral toxicity study in dogs, 10 and 15 mg/kg/day): increased weight and total plasma cholesterol levels | Therapeutic index from non-human NOAEL levels (dogs; oral dosing programme, dogs (sedation)): 2 to 3 fold | Time to steady-state ([1]; 600, 800 and 1000 mg BID, 0.3 micron capsules): ≤ 3 days | Mean fluctuation at steady-state ([1]; 600 to 1000 mg BID): 172% to 191% | Cmax ([1]; human, plasma, oral, 600 mg BID, 0.3 micron capsules): 224 ng/mL | Cmax ([1]; human, plasma, oral, 800 mg BID, 0.3 micron capsules): 263 ng/mL | Cmax ([1]; human, plasma, oral, 1000 mg BID, 0.3 micron capsules): 262 ng/mL | clearance ([1]; human, plasma, oral, 600 to 1000 mg BID, read-out: Mean apparent total body CL at steady-state): 10200 to 12800 mL/min | Dose through which pharmacokinetics are linear ([1]; immediate release 0.3-micron particles, given BID): approximately 1200 mg/day | Enzyme driving clearance (CYP3A4): driven mainly by CYP3A4 | Interaction with hERG receptor [2]: did not interact | Pulmonary effects (female rats): No pulmonary effects | Local tolerance (rabbits): no findings
